# Measured values reported in paper PMC10348020, “Carbonic anhydrase inhibitory activity of phthalimide-capped benzene sulphonamide derivatives” (Journal of Enzyme Inhibition and Medicinal Chemistry, 2023).
# “Also recorded” adds a separate entry of the source.
# How the values were obtained:
# dengue viral protease = test system: dengue viral protease; parameters: method as in PMID 26247308; conditions: previously reported by the group; cited from earlier work
# hCA II = target: T1, hCA II (Homo sapiens, UniProt P00918); experiment: stopped-flow CO2 hydrase assay, hCA II; assay type: biochemical; conditions: for Ki: stopped-flow CO2 hydrase assay, mean from three different assays, errors ± 5–10%; for hCA II inhibition (in words): stopped-flow assay
# T1 construct: hCA isoenzymes I and II used in these experiments were obtained, as earlier reported by our groups
# Protocol: (§1) The CA isoenzyme assay was performed using a stopped-flow Applied Photophysics (SX.18V-R; Oxford, UK) instrument using Khalifah’s technique. hCA isoenzymes I and II used in these experiments were obtained, as earlier reported by our groups.
# hCA I = target: T2, hCA I (Homo sapiens, UniProt P00915); experiment: stopped-flow CO2 hydrase assay, hCA I; assay type: biochemical; conditions: for Ki: stopped-flow CO2 hydrase assay, mean from three different assays, errors ± 5–10%; for hCA I inhibition (in words): stopped-flow assay
# T2 construct: hCA isoenzymes I and II used in these experiments were obtained, as earlier reported by our groups
# Protocol: as §1
# T2 sequence (P00915 whole entry): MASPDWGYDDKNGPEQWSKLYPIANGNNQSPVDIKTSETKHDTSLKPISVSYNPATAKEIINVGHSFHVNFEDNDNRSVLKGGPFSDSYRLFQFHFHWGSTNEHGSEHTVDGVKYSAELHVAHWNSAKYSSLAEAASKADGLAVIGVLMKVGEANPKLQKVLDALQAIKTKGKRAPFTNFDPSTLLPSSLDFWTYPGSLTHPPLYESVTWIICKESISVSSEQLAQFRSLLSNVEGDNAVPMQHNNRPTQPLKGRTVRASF
Ki (hCA II) [µM],Ki (hCA I) [µM],Compound,dengue viral protease inhibition (in words) (dengue viral protease),hCA I inhibition (in words) (hCA I),hCA II inhibition (in words) (hCA II)
–,–,NS(=O)(=O)c1ccc(N2C(=O)c3ccccc3C2=O)cc1 [Compound 1],inactive,–,–
> 10,> 10,CC(C)NS(=O)(=O)c1ccc(N2C(=O)c3ccccc3C2=O)cc1 [Compound 2],–,–,–
–,7.35,O=C1c2ccccc2C(=O)N1c1ccc(S(=O)(=O)NCCc2ccccc2)cc1 [Compound 3],–,showed hCA I inhibition; also recorded: inhibited hCA I,–
9.06,> 10,CN(C)S(=O)(=O)c1ccc(N2C(=O)c3ccccc3C2=O)cc1 [Compound 4],–,–,showed hCA II inhibition at nanomolar concentrations; also recorded: inhibited hCA II
> 10,> 10,O=C1c2ccccc2C(=O)N1c1ccc(S(=O)(=O)N(c2ccccc2)c2ccccc2)cc1 [Compound 6],–,–,–
> 10,> 10,CN1CCN(S(=O)(=O)c2ccc(N3C(=O)c4ccccc4C3=O)cc2)CC1 [Compound 8],–,–,–
> 10,> 10,O=C1c2ccccc2C(=O)N1c1ccc(S(=O)(=O)Nc2ccccc2)cc1 [Compound 9],–,–,–
8.87,5.52,O=C1c2ccccc2C(=O)N1c1ccc(S(=O)(=O)Nc2ccccc2O)cc1 [Compound 10],–,showed hCA I inhibition; also recorded: inhibited hCA I,showed hCA II inhibition at nanomolar concentrations; also recorded: inhibited hCA II
> 10,> 10,COc1cccc(NS(=O)(=O)c2ccc(N3C(=O)c4ccccc4C3=O)cc2)c1 [Compound 11],–,–,–
> 10,> 10,O=C1c2ccccc2C(=O)N1c1ccc(S(=O)(=O)Nc2ccccc2Cl)cc1 [Compound 13],–,–,–
> 10,> 10,O=C1c2ccccc2C(=O)N1c1ccc(S(=O)(=O)Nc2cccc(Cl)c2)cc1 [Compound 14],–,–,–
> 10,> 10,Cc1cccc(NS(=O)(=O)c2ccc(N3C(=O)c4ccccc4C3=O)cc2)c1 [Compound 17],–,–,–
> 10,> 10,O=C1c2ccccc2C(=O)N1c1ccc(S(=O)(=O)Nc2cccc([N+](=O)[O-])c2)cc1 [Compound 20],–,–,–
> 10,> 10,O=C1c2ccccc2C(=O)N1c1ccc(S(=O)(=O)Nc2ccc([N+](=O)[O-])cc2)cc1 [Compound 21],–,–,–
> 10,> 10,O=C(O)c1ccc(NS(=O)(=O)c2ccc(N3C(=O)c4ccccc4C3=O)cc2)cc1 [Compound 22],–,–,–

Compound,Ki (hCA II) [µM],Ki (hCA I) [µM],dengue viral protease inhibition (in words) (dengue viral protease),hCA I inhibition (in words) (hCA I),hCA II inhibition (in words) (hCA II)
CCN(CC)S(=O)(=O)c1ccc(N2C(=O)c3ccccc3C2=O)cc1 [Compound 5],> 10,> 10,–,–,–
O=C1c2ccccc2C(=O)N1c1ccc(S(=O)(=O)N2CCCCC2)cc1 [Compound 7],> 10,> 10,–,–,–
COc1ccc(NS(=O)(=O)c2ccc(N3C(=O)c4ccccc4C3=O)cc2)cc1 [Compound 12],> 10,> 10,–,–,–
O=C1c2ccccc2C(=O)N1c1ccc(S(=O)(=O)Nc2ccc(Cl)cc2)cc1 [Compound 15],> 10,7.5,–,showed hCA I inhibition; also recorded: inhibited hCA I,–
Cc1ccccc1NS(=O)(=O)c1ccc(N2C(=O)c3ccccc3C2=O)cc1 [Compound 16],> 10,> 10,–,–,–
Cc1ccc(NS(=O)(=O)c2ccc(N3C(=O)c4ccccc4C3=O)cc2)cc1 [Compound 18],> 10,> 10,–,–,–
CCc1ccc(NS(=O)(=O)c2ccc(N3C(=O)c4ccccc4C3=O)cc2)cc1 [Compound 19],> 10,> 10,potent dengue protease inhibitor,inactive,inactive
